Source: PubChem BioAssay (NCI)
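Values below derive from 48-hour exposures of cells grown in 96-well plates, with endpoints linearly interpolated between the two concentrations bracketing the appropriate inhibition level. TGI: concentration producing complete growth inhibition.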

Legend:
Test in all cases: NCI-60 cell line screen, 48 h
HCT-116 colon = test system: HCT-116 colon
SK-MEL-2 melanoma = test system: SK-MEL-2 melanoma
BT-549 breast = test system: BT-549 breast
NCI-H226 lung = test system: NCI-H226 lung
SK-MEL-28 melanoma = test system: SK-MEL-28 melanoma
ACHN renal = test system: ACHN renal
MDA-N = test system: MDA-N
COLO 205 colon = test system: COLO 205 colon
A549 NSCLC = test system: A549 NSCLC
OVCAR-3 ovarian = test system: OVCAR-3 ovarian
HOP-62 NSCLC = test system: HOP-62 NSCLC
OVCAR-4 ovarian = test system: OVCAR-4 ovarian
NCI-H522 lung = test system: NCI-H522 lung
EKVX NSCLC = test system: EKVX NSCLC
NCI-H23 lung = test system: NCI-H23 lung
KM12 colon = test system: KM12 colon
RXF 393 renal = test system: RXF 393 renal
SNB-75 CNS = test system: SNB-75 CNS
SN12C renal = test system: SN12C renal
NCI-H460 lung = test system: NCI-H460 lung
HCT-15 colon = test system: HCT-15 colon
CAKI-1 renal = test system: CAKI-1 renal
M14 melanoma = test system: M14 melanoma
SF-268 CNS = test system: SF-268 CNS
OVCAR-8 ovarian = test system: OVCAR-8 ovarian
UACC-62 melanoma = test system: UACC-62 melanoma
HCC-2998 colon = test system: HCC-2998 colon
HL-60(TB) leukemia = test system: HL-60(TB) leukemia
RPMI-8226 leukemia = test system: RPMI-8226 leukemia
MDA-MB-435 = test system: MDA-MB-435
OVCAR-5 ovarian = test system: OVCAR-5 ovarian
DU-145 prostate = test system: DU-145 prostate
T-47D breast = test system: T-47D breast
MCF7 breast = test system: MCF7 breast
MOLT-4 leukemia = test system: MOLT-4 leukemia
K-562 leukemia = test system: K-562 leukemia
HT29 colon = test system: HT29 colon
MALME-3M melanoma = test system: MALME-3M melanoma
HOP-92 NSCLC = test system: HOP-92 NSCLC
A498 renal = test system: A498 renal
NCI/ADR-RES ovarian = test system: NCI/ADR-RES ovarian
SF-295 CNS = test system: SF-295 CNS
HS 578T breast = test system: HS 578T breast
SNB-19 CNS = test system: SNB-19 CNS
786-0 renal = test system: 786-0 renal
SW-620 colon = test system: SW-620 colon
SK-OV-3 ovarian = test system: SK-OV-3 ovarian
TK-10 renal = test system: TK-10 renal
U251 CNS = test system: U251 CNS
IGROV1 ovarian = test system: IGROV1 ovarian
SF-539 CNS = test system: SF-539 CNS
SK-MEL-5 melanoma = test system: SK-MEL-5 melanoma
UACC-257 melanoma = test system: UACC-257 melanoma
MDA-MB-231 breast = test system: MDA-MB-231 breast
PC-3 prostate = test system: PC-3 prostate
CCRF-CEM leukemia = test system: CCRF-CEM leukemia
LOX IMVI melanoma = test system: LOX IMVI melanoma
SR leukemia = test system: SR leukemia
DMS 273 small cell lung = test system: DMS 273 small cell lung
UO-31 renal = test system: UO-31 renal
LXFL 529 NSCLC = test system: LXFL 529 NSCLC
HOP-18 NSCLC = test system: HOP-18 NSCLC
XF 498 CNS = test system: XF 498 CNS
SNB-78 CNS = test system: SNB-78 CNS
KM20L2 colon = test system: KM20L2 colon
M19-MEL melanoma = test system: M19-MEL melanoma
DLD-1 colon = test system: DLD-1 colon

Structure (SMILES): O/N=C(/CC(O)(C(F)(F)F)C(F)(F)F)c1ccccc1
- TGI (HCT-116 colon): > 10 µM
- TGI (SK-MEL-2 melanoma): > 10 µM
- TGI (BT-549 breast): > 10 µM
- TGI (NCI-H226 lung): > 10 µM
- TGI (SK-MEL-28 melanoma): > 10 µM
- TGI (ACHN renal): > 10 µM
- TGI (MDA-N): > 10 µM
- TGI (COLO 205 colon): > 10 µM
- TGI (A549 NSCLC): > 10 µM
- TGI (OVCAR-3 ovarian): > 10 µM
- TGI (HOP-62 NSCLC): > 10 µM
- TGI (OVCAR-4 ovarian): > 10 µM
- TGI (NCI-H522 lung): > 10 µM
- TGI (EKVX NSCLC): > 10 µM
- TGI (NCI-H23 lung): > 10 µM
- TGI (KM12 colon): > 10 µM
- TGI (RXF 393 renal): > 10 µM
- TGI (SNB-75 CNS): > 10 µM
- TGI (SN12C renal): > 10 µM
- TGI (NCI-H460 lung): > 10 µM
- TGI (HCT-15 colon): > 10 µM
- TGI (CAKI-1 renal): > 10 µM
- TGI (M14 melanoma): > 10 µM
- TGI (SF-268 CNS): > 10 µM
- TGI (OVCAR-8 ovarian): > 10 µM
- TGI (UACC-62 melanoma): > 10 µM
- TGI (HCC-2998 colon): > 10 µM
- TGI (HL-60(TB) leukemia): > 10 µM
- TGI (RPMI-8226 leukemia): > 10 µM
- TGI (MDA-MB-435): > 10 µM
- TGI (OVCAR-5 ovarian): > 10 µM
- TGI (DU-145 prostate): > 10 µM
- TGI (T-47D breast): > 10 µM
- TGI (MCF7 breast): > 10 µM
- TGI (MOLT-4 leukemia): > 10 µM
- TGI (K-562 leukemia): > 10 µM
- TGI (HT29 colon): > 10 µM
- TGI (MALME-3M melanoma): > 10 µM
- TGI (HOP-92 NSCLC): > 10 µM
- TGI (A498 renal): > 10 µM
- TGI (NCI/ADR-RES ovarian): > 10 µM
- TGI (SF-295 CNS): > 10 µM
- TGI (HS 578T breast): > 10 µM
- TGI (SNB-19 CNS): > 10 µM
- TGI (786-0 renal): > 10 µM
- TGI (SW-620 colon): > 10 µM
- TGI (SK-OV-3 ovarian): > 10 µM
- TGI (TK-10 renal): > 10 µM
- TGI (U251 CNS): > 10 µM
- TGI (IGROV1 ovarian): > 10 µM
- TGI (SF-539 CNS): > 10 µM
- TGI (SK-MEL-5 melanoma): > 10 µM
- TGI (UACC-257 melanoma): > 10 µM
- TGI (MDA-MB-231 breast): > 10 µM
- TGI (PC-3 prostate): > 10 µM
- TGI (CCRF-CEM leukemia): > 10 µM
- TGI (LOX IMVI melanoma): > 10 µM
- TGI (SR leukemia): > 10 µM

Structure (SMILES): CCC1C(C(=O)Nc2ccccc2C)=C(C)NC(C)=C1c1ccccc1C (stereo not given)
- TGI (HCT-116 colon): > 77.6 µM
- TGI (SK-MEL-2 melanoma): > 100 µM
- TGI (DMS 273 small cell lung): > 83.2 µM
- TGI (NCI-H226 lung): > 100 µM
- TGI (SK-MEL-28 melanoma): > 100 µM
- TGI (ACHN renal): > 100 µM
- TGI (COLO 205 colon): > 100 µM
- TGI (UO-31 renal): > 100 µM
- TGI (A549 NSCLC): > 100 µM
- TGI (OVCAR-3 ovarian): > 100 µM
- TGI (HOP-62 NSCLC): > 100 µM
- TGI (OVCAR-4 ovarian): > 100 µM
- TGI (LXFL 529 NSCLC): > 100 µM
- TGI (NCI-H522 lung): > 100 µM
- TGI (EKVX NSCLC): > 100 µM
- TGI (NCI-H23 lung): > 100 µM
- TGI (HOP-18 NSCLC): > 100 µM
- TGI (KM12 colon): > 100 µM
- TGI (RXF 393 renal): > 100 µM
- TGI (SNB-75 CNS): > 100 µM
- TGI (SN12C renal): > 100 µM
- TGI (NCI-H460 lung): > 67.1 µM
- TGI (HCT-15 colon): > 54.8 µM
- TGI (CAKI-1 renal): > 100 µM
- TGI (M14 melanoma): > 100 µM
- TGI (SF-268 CNS): > 61.1 µM
- TGI (XF 498 CNS): > 100 µM
- TGI (OVCAR-8 ovarian): > 100 µM
- TGI (UACC-62 melanoma): > 100 µM
- TGI (HCC-2998 colon): > 100 µM
- TGI (HL-60(TB) leukemia): 31.5 µM
- TGI (RPMI-8226 leukemia): 61.5 µM
- TGI (OVCAR-5 ovarian): > 100 µM
- TGI (SNB-78 CNS): > 100 µM
- TGI (KM20L2 colon): > 100 µM
- TGI (MOLT-4 leukemia): > 100 µM
- TGI (K-562 leukemia): > 100 µM
- TGI (HT29 colon): > 100 µM
- TGI (MALME-3M melanoma): > 100 µM
- TGI (HOP-92 NSCLC): > 100 µM
- TGI (A498 renal): > 100 µM
- TGI (SF-295 CNS): > 100 µM
- TGI (SNB-19 CNS): > 100 µM
- TGI (786-0 renal): > 100 µM
- TGI (SW-620 colon): > 59.9 µM
- TGI (SK-OV-3 ovarian): > 100 µM
- TGI (TK-10 renal): > 100 µM
- TGI (U251 CNS): > 100 µM
- TGI (IGROV1 ovarian): > 100 µM
- TGI (SF-539 CNS): > 100 µM
- TGI (SK-MEL-5 melanoma): > 100 µM
- TGI (M19-MEL melanoma): > 100 µM
- TGI (DLD-1 colon): > 59.7 µM
- TGI (UACC-257 melanoma): > 100 µM
- TGI (CCRF-CEM leukemia): > 100 µM
- TGI (LOX IMVI melanoma): > 100 µM
- TGI (SR leukemia): > 76.7 µM
